Source: ChEMBL document CHEMBL4118162, “Discovery of novel anti-tuberculosis agents with pyrrolo[1,2-a]quinoxaline-based scaffold” (Bioorg Med Chem Lett, 2018)
pIC50: −log10 of the molar value. In brackets after ≈: the same amount, converted by molar mass.

Tests used:
[1] = test system: Mycobacterium tuberculosis; experiment: Antitubercular activity against Mycobacterium tuberculosis H37Ra up to 7 days; assay type: functional; settings: 168 h
[2] = test system: Mycobacterium tuberculosis; experiment: Antitubercular activity against Mycobacterium tuberculosis H37Ra assessed as as inhibition of bacterial growth at 10 ug/ml up to 7 days; assay type: functional; settings: 168 h, read-out: GI
[3] = Solubility of the compound in water at 500 ug/mL by HPLC method; assay type: physicochemical
[4] = Cytotoxicity against human LO2 cells assessed as growth inhibition up to 20 uM after 48 hrs by MTT assay; assay type: cell-based, L02; settings: read-out: GI
[5] = Cytotoxicity against human SKOV3 cells assessed as growth inhibition up to 20 uM after 48 hrs by MTT assay; assay type: cell-based, SK-OV-3; settings: read-out: GI
[6] = Cytotoxicity against human MDA231 cells assessed as growth inhibition up to 20 uM after 48 hrs by MTT assay; assay type: cell-based, MDA-MB-231; settings: read-out: GI
[7] = biological target: T1, Enoyl-[acyl-carrier-protein] reductase [NADH] (Mycobacterium tuberculosis) (UniProt P9WGR1); experiment: Inhibition of Mycobacterium tuberculosis InhA at 100 uM using trans-2-decenoyl-N-acetylcysteamine as substrate preincubated for 1 hr followed by substrate addition measured every 30 secs for 5 mins
T1 sequence (whole entry): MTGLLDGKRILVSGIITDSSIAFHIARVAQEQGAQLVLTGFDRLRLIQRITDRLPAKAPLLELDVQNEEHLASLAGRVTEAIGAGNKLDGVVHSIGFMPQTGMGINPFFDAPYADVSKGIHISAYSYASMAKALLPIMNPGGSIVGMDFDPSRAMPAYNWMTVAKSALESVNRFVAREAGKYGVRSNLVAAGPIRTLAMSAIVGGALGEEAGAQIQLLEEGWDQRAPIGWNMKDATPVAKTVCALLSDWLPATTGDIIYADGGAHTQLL

[8] = Solubility of the compound in water at 180 uM by HPLC method; assay type: physicochemical
[9] = Effective permeability of the compound in PBS/EtOH at 50 ug/mL after 18 hrs by PAMPA-BBB assay
[10] = biological target: T2, Enoyl-[acyl-carrier-protein] reductase [NADH] (Mycobacterium tuberculosis, UniProt P9WGR1); experiment: Inhibition of Mycobacterium tuberculosis InhA using trans-2-decenoyl-N-acetylcysteamine as substrate preincubated for 1 hr followed by substrate addition measured every 30 secs for 5 mins
T2 sequence (P9WGR1 whole entry): T1 sequence (whole entry)

Row | SMILES | MIC90 [1] [µg/mL] | inhibition of growth at 10 µg/mL [2] [%] | solubility [3] [µg/mL] | inhibition at 48 h [4] [%] | inhibition at 48 h [5] [%] | inhibition at 48 h [6] [%] | inhibition [7] [%] | solubility at 180 µM [8] [µg/mL] | Papp at 18 h, 50 ug/mL [9] [×10⁻⁶ cm/s] | pIC50 [10]
1 | CCN(CC)Cc1cc(-c2ccccc2F)n2c1cnc1ccccc12 | > 50 | ≥ 90 | – | – | – | – | – | – | – | –
2 | CCCNCc1cc(-c2ccccc2F)n2c1cnc1cc(Cl)ccc12 | 10 (≈ 27.2 µM) | ≥ 90 | 17.5 (≈ 47.6 µM) | 73.7 | 77 | 74.5 | 24.8 | – | – | –
3 | CCCCNCc1cc(-c2ccccc2F)n2c1cnc1cc(Cl)ccc12 | 10 (≈ 26.2 µM) | ≥ 90 | 20 (≈ 52.3 µM) | 73.7 | 75.9 | 74.5 | 33.3 | – | – | –
4 | Fc1ccccc1-c1cc(CNCc2c(F)cccc2Cl)c2cnc3ccccc3n12 | > 50 | ≥ 90 | 20.8 (≈ 48 µM) | – | – | – | – | – | – | –
5 | Fc1ccccc1-c1cc(CN2CCOCC2)c2cnc3cc(Cl)ccc3n12 | > 50 | ≥ 90 | < 2.5 | – | – | – | – | – | – | –
6 | Fc1ccccc1-c1cc(CNCc2c(F)cccc2Cl)c2cnc3cc(Cl)ccc3n12 | > 50 | ≥ 90 | < 2.5 | – | – | – | – | – | – | –
7 | Fc1ccccc1-c1cc(CN2CCN(c3ccccc3C(F)(F)F)CC2)c2cnc3cc(Cl)ccc3n12 | > 50 | ≥ 90 | < 2.5 | – | – | – | – | – | – | –
8 | Fc1ccccc1-c1cc(CNCc2ccccc2)c2cnc3cc(Cl)ccc3n12 | 5 (≈ 12 µM) | ≥ 90 | < 2.5 | 43.7 | 19.4 | 27.8 | 37 | – | – | –
9 | Fc1ccccc1-c1cc(CNCc2ccccc2)c2cnc3ccccc3n12 | 10 to 50 (≈ 26.2 to 131 µM) | ≥ 90 | 21.1 (≈ 55.3 µM) | – | – | – | 22.1 | – | – | –
10 | COc1ccc(CCNCc2cc(-c3ccccc3F)n3c2cnc2ccccc23)cc1OC | 10 to 50 (≈ 22 to 110 µM) | ≥ 90 | 50.7 (≈ 111 µM) | – | – | – | 6.28 | – | – | –
11 | CCCCNCc1cc(-c2ccccc2F)n2c1cnc1cc(F)ccc12 | 25 (≈ 68.4 µM) | ≥ 90 | 8.61 (≈ 23.6 µM) | – | – | – | 7.88 | – | – | –
12 | CC(C)NCc1cc(-c2ccccc2F)n2c1cnc1ccccc12 | 10 to 50 (≈ 30 to 150 µM) | ≥ 90 | 70.5 (≈ 212 µM) | – | – | – | 17.3 | – | – | –
13 | COc1ccc(CCNCc2cc(-c3ccccc3F)n3c2cnc2cc(Cl)ccc23)cc1OC | 5 (≈ 10.2 µM) | ≥ 90 | – | 53.5 | 84.4 | 76.4 | 40.4 | 90 (≈ 184 µM) | 9.39 | –
14 | CC(C)NCc1cc(-c2ccccc2F)n2c1cnc1cc(Cl)ccc12 | 10 (≈ 27.2 µM) | ≥ 90 | 33.2 (≈ 90.1 µM) | 76.4 | 76.4 | 71.7 | 27.4 | – | – | –
15 | CCCNCc1cc(-c2ccccc2F)n2c1cnc1ccccc12 | 10 to 50 (≈ 30 to 150 µM) | ≥ 90 | 73.3 (≈ 220 µM) | – | – | – | 5.21 | – | – | –
16 | Fc1ccccc1-c1cc(CNCCc2ccc(Br)cc2)c2cnc3cc(Cl)ccc3n12 | 5 (≈ 9.83 µM) | ≥ 90 | < 2.5 | 40.1 | 71.8 | 70.5 | 64.9 | – | – | 4.32
17 | CCCCNCc1cc(-c2ccccc2F)n2c1cnc1ccccc12 | 10 to 50 (≈ 28.8 to 144 µM) | ≥ 90 | 120 (≈ 346 µM) | – | – | – | 14.4 | – | – | –
18 | Fc1ccccc1-c1cc(CNCc2ccccc2)c2cnc3cc(Br)ccc3n12 | 10 (≈ 21.7 µM) | ≥ 90 | < 2.5 | 5.38 | 13.3 | 32.1 | 62 | – | – | 4.27
19 | CCN(CC)Cc1cc(-c2ccccc2F)n2c1cnc1cc(Cl)ccc12 | 10 to 50 (≈ 26.2 to 131 µM) | ≥ 90 | – | – | – | – | – | – | – | –
20 | CCN(Cc1ccccc1)Cc1cc(-c2ccccc2F)n2c1cnc1cc(Cl)ccc12 | > 50 | ≥ 90 | < 2.5 | – | – | – | – | – | – | –
21 | CCCCNCc1cc(-c2ccccc2F)n2c1cnc1cc(Br)ccc12 | 10 (≈ 23.5 µM) | ≥ 90 | 6.74 (≈ 15.8 µM) | 68.7 | 66.3 | 70.8 | 50.2 | – | – | –
22 | Fc1ccccc1-c1cc(CNCCc2ccc(Br)cc2)c2cnc3ccccc3n12 | 5 (≈ 10.5 µM) | ≥ 90 | < 2.5 | 72.3 | 69.3 | 76.1 | 17.3 | – | – | –
23 | Fc1ccc2c(c1)ncc1c(CNCc3ccccc3)cc(-c3ccccc3F)n12 | 10 (≈ 25 µM) | ≥ 90 | 4.9 (≈ 12.3 µM) | 20.1 | -7.09 | -8.04 | 48.5 | – | – | –
